Key:
A 549 cells = test: Proliferation test (MTT assay), A 549; type: cell-based, human; conditions: A 549, MTT, 72 hours
Description: (§1) The cytotoxic activity of the compounds according to the invention was measured in two different in vitro test systems.
(§2) 1. Proliferation test (MTT assay)
(§3) In this test system, the number of live or dead cells after incubation with the test substance for 3 days is measured by means of the NADP-dependent reduction of a colorless substrate to give a deep red-colored final product, which occurs only in live cells.
(§4) Control experiments contain merely growth medium in place of the test substance. Quadruplicate determinations were set up for each test substance and for the controls. After incubation for 65 hours, 50 μl of an MTT solution (2.5 mg/ml in phosphate buffered saline) are added. In the presence of live cells MTT is reduced to a dark-red insoluble formazan pigment. […] The insoluble pigment is dissolved by addition of 100 μl of DMSO, and the extinction of the solution produced in this way is subsequently measured for each well in a Multiscan photometer 340 CC from Flow at a wavelength of 492 nm.

solubility = type: physicochemical
stability = type: physicochemical
Staph. aureus = test: antibacterial effect in vitro, agar plate diffusion test, Staph. aureus; type: cell-based; conditions: agar plate diffusion test (10 μl/test disk 6 mm in diameter)
Description: (§5) Examples of various organisms which emerge as sensitive to an inhibitory concentration of greater than 10 μg/ml are: E. coli, Staph. aureus, Strep. faecalis.

HT 29 cells = test: Proliferation test (MTT assay), HT 29; type: cell-based, human; conditions: HT 29, MTT, 72 hours
Description: as §1, §2, §3, §4

[1] = tested on: Gram-positive and Gram-negative bacteria; test: antibacterial effect in vitro against Gram-positive and Gram-negative bacteria, agar plate diffusion test; type: cell-based
Description: as §5

tumor cell colonies = test: Stem Cell Test (inhibition of tumor cell colony formation in soft agar); type: cell-based; conditions: cell line not given; for IC50 Cont. incubation (colony formation in soft agar): continuous incubation
Description: as §1
This test system examines the ability of the test substance to inhibit the formation of tumor cell colonies in soft agar. The test was carried out by the method described by Hamburger and Salmon, with the modifications described below. Conditioned medium was replaced by McCoy 5A medium. […] The cells were incubated with various concentrations of the test substance at 37° C. for 1 hour. The cells were then washed twice with McCoy 5A medium and then plated out as the upper layer in a two-layer agar system in accordance with the Hamburger and Salmon method. Additional parallel experiments were carried out using a continuous incubation time, in which case various concentrations of the test substance were mixed with the upper agar layer before plating out the cells.
After this time, colonies with a diameter of (greater than) 60 μm were counted using an image analysis system (FAS II, Bausch and Lomb).
The IC50 for continuous and one-hour incubation was determined from the dose-effect plot (Tab. 2).

[2] = tested on: human and animal tumor cells; test: tumor-inhibiting effect in vitro; type: cell-based
E. coli = test: antibacterial effect in vitro, agar plate diffusion test, E. coli; type: cell-based; conditions: agar plate diffusion test (10 μl/test disk 6 mm in diameter)
Description: as §5

L1210 cells = test: Proliferation test (MTT assay), L1210; type: cell-based, murine; conditions: 72 hours
Description: as §1, §2, §3, §4

Strep. faecalis = test: antibacterial effect in vitro, agar plate diffusion test, Strep. faecalis; type: cell-based; conditions: agar plate diffusion test (10 μl/test disk 6 mm in diameter)
Description: as §5

sakyomicin E
IC50 A 549 (concentration which just kills 50% of the cells) (A 549 cells): 0.30 µg/mL
solubility in alkanes (solubility; alkanes): insoluble or only very slightly soluble
solubility in ethyl acetate, methanol, acetone, DMSO and chloroform (solubility; ethyl acetate, methanol, acetone, DMSO and chloroform): readily soluble
stability in solution (stability; in solution in the pH range from 3 to 9, especially from 5 to 8): stable
stability in the solid state (stability; solid state): stable
inhibitory concentration, Staph. aureus (Staph. aureus): greater than 10 μg/ml
IC50 HT 29 (concentration which just kills 50% of the cells) (HT 29 cells): 0.08 µg/mL
antibacterial effect against Gram-positive and Gram-negative bacteria [1]: exhibits an antibacterial effect
IC50 1 h incubation (colony formation in soft agar) (tumor cell colonies): 3.0 µg/mL
IC50 Cont. incubation (colony formation in soft agar) (tumor cell colonies): 0.24 µg/mL
tumor-inhibiting effect in vitro [2]: tumor-inhibiting effect
inhibitory concentration, E. coli (E. coli): greater than 10 μg/ml
IC50 L1210 (concentration which just kills 50% of the cells) (L1210 cells): 0.50 µg/mL
inhibitory concentration, Strep. faecalis (Strep. faecalis): greater than 10 μg/ml

2,8,4'-tri-O-acetylsakyomicin E
IC50 A 549 (concentration which just kills 50% of the cells) (A 549 cells): 0.37 µg/mL
IC50 HT 29 (concentration which just kills 50% of the cells) (HT 29 cells): 0.11 µg/mL
IC50 1 h incubation (colony formation in soft agar) (tumor cell colonies): above 1.0 μg/ml
IC50 Cont. incubation (colony formation in soft agar) (tumor cell colonies): 0.30 µg/mL
IC50 L1210 (concentration which just kills 50% of the cells) (L1210 cells): 0.29 µg/mL
